Experiments:
[1] = tested on: NSCL cancer subpanel; assay: NCI 60 subpanel summary; type: cell-based, human
[2] = tested on: Melanoma subpanel; assay: NCI 60 subpanel summary; type: cell-based, human
[3] = tested on: Prostate cancer subpanel; assay: NCI 60 subpanel summary; type: cell-based, human
[4] = tested on: Breast cancer subpanel; assay: NCI 60 subpanel summary; type: cell-based, human
[5] = molecular target: c-Met (Homo sapiens, UniProt P08581); assay: c-Met kinase inhibitory assay (HTRF); type: biochemical
[6] = tested on: HepG-2 cancer cells; assay: Annexin V-FITC/PI apoptosis detection; type: cell-based, human; details: 24 h
Description: The annexin V-FITC apoptosis detection kit (BD Biosciences) was used to quantify the percentage of cells undergoing apoptosis and detect the modes of cell death, either by apoptosis or necrosis, in the presence or absence of the active compound 3d. The experiment was carried out according to the manufacturer's protocol. More details are presented in the SI.
Flow cytometry assay employing annexin V-FITC and propidium iodide double labeling was used to further examine the apoptotic impact of compound 3d.[81,82] […] Additionally, 3d enhanced the late apoptotic effect from 0.17% in the control cells to 15.07% in the treated cells. Moreover, compound 3d promoted necrosis by 4.32% in the 3d-treated cells in comparison with 1.4% in the untreated ones (Table 5 and Fig. 4). These findings support the cytotoxic action of compound 3d on HepG-2 cells. In addition, it implies that its cytotoxic impact is not only due to it initiating programmed cell death pathways in an orderly manner but also its ability to effectively complete the apoptotic process, which results in the fragmentation and removal of cancer cells. […]
5.2.4. Annexin-V FTIC apoptotic study
Estimation of fractional DNA content (aka sub-G1 assay) is a widely used assay to determine apoptosis. Cleavage of genomic DNA into smaller fragments (180–200 bp lengths) is a hallmark for apoptosis in numerous cells. PI stained cells will stain less intensely and show a peak below the G1 peak (Sub-G1). In this work, flow cytometer with Annexin V-fluorescein isothiocyanate/propidium iodide FITC/PI double staining apoptosis detection kit (K101, Biovision) was used to study apoptosis of MCF-7 cells treated with compound 3d. Cells were incubated, collected by centrifugation, re-suspended in 500 μL of 1X binding buffer. Annexin V-FITC (5 μL) and PI (5 μL) was added and incubation was continued for additional 5 min in the dark at room temperature. Annexin V-FITC binding was analyzed by flow cytometry using FITC signal detector (FL1) and PI staining by FL2 phycoerythrin emission signal detector [75].

[7] = tested on: HL-60(TB); assay: cells; details: Homo sapiens
[8] = tested on: NCI 60 cancer cell line panel; assay: NCI 60 full panel summary
[9] = tested on: HCT-15
[10] = tested on: HT29
[11] = tested on: KM12
[12] = tested on: SW-620
[13] = tested on: SF-539
[14] = tested on: SNB-75
[15] = tested on: LOX IMVI
[16] = tested on: MALME-3M
[17] = tested on: SK-MEL-2
[18] = tested on: OVCAR-3
[19] = tested on: OVCAR-8
[20] = tested on: A498
[21] = Homo sapiens, subpanel mean graph midpoint, read-out: MG-MID (GI50)
[22] = full panel MG-MID / subpanel MG-MID
[23] = single dose 10 μM, colon cancer
[24] = single dose 10 μM, ovarian carcinoma

Sequence of c-Met (P08581 25-1390): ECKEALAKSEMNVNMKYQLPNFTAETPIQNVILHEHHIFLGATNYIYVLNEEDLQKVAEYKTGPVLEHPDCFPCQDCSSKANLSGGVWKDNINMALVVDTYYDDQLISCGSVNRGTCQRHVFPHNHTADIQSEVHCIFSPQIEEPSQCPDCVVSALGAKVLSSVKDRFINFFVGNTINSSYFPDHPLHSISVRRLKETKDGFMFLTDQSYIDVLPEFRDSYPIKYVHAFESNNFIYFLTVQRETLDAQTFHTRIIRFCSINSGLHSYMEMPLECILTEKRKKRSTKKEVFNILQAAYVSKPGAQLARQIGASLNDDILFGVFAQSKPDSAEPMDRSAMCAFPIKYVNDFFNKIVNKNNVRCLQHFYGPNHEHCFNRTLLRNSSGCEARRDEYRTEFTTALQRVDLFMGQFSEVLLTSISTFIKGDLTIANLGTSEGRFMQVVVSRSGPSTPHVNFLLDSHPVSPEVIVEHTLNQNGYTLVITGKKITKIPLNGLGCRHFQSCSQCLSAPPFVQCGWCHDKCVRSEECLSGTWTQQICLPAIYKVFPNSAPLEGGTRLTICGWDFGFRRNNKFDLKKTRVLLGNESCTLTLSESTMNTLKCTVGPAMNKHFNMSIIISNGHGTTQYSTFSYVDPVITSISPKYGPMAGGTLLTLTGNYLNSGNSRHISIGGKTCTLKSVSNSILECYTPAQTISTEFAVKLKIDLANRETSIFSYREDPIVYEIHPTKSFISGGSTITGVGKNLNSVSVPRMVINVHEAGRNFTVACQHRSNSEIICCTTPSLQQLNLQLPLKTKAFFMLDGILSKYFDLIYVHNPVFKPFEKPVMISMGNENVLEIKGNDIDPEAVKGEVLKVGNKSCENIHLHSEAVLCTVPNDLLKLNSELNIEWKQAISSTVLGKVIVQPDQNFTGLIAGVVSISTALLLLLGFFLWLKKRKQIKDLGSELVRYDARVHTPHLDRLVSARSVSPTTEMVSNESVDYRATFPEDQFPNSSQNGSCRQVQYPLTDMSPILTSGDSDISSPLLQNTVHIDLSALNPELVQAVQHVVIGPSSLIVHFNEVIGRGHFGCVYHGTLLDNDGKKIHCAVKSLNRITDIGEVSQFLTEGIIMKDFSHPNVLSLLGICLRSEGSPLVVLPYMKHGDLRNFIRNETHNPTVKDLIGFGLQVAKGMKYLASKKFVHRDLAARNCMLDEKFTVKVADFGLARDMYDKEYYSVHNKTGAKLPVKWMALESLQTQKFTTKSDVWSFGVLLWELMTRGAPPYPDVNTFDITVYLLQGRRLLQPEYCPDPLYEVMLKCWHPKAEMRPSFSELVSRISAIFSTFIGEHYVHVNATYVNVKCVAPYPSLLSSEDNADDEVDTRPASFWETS

**Q.** How did the GI50 [1, 21] turn out when c1ccc(-n2cc(C3CC(c4nc5ccccc5[nH]4)=NN3)c(-c3cc4ccccc4o3)n2)cc1 (centres unmarked) [3d, 3-(Benzofuran-2-yl)-4-(3-(1H-benzo[d]imidazol-2-yl)-4,5-dihydro-1H-pyrazol-5-yl)-1-phenyl-1H-pyrazole] was run?
**A.** The GI50 was 4.02 µM.

**Q.** And the Selectivity index [1, 22]?
**A.** Its Selectivity index is 1.04.

**Q.** What about the GI50 [2, 21] of the same molecule?
**A.** Its GI50 is 3.92 µM.

**Q.** What about the Selectivity index [2, 22] of the same molecule?
**A.** The Selectivity index was 1.07.

**Q.** What about the GI50 [3, 21] of the same molecule?
**A.** The GI50 was 4.31 µM.

**Q.** And the Selectivity index [3, 22]?
**A.** Its Selectivity index is 0.97.

**Q.** What about the GI50 [4, 21] of the same molecule?
**A.** Its GI50 is 4.49 µM.

**Q.** What about the Selectivity index [4, 22] of the same molecule?
**A.** The Selectivity index was 0.935.

**Q.** And the IC50 [5]?
**A.** The IC50 was 0.911 µM.

**Q.** And the Late apoptosis ([6]; control 0.17)?
**A.** The Late apoptosis was 15.07%.

**Q.** What about the Early apoptosis ([6]; control 0.52) of the same molecule?
**A.** Its Early apoptosis is 24.66%.

**Q.** And the Necrosis ([6]; control 1.4)?
**A.** Its Necrosis is 4.32%.

**Q.** And the “Apoptosis, total” value ([6]; control 2.09)?
**A.** The value was 44.05%.

**Q.** What about the GI50 [7] of the same molecule?
**A.** The GI50 was 2.56 µM.

**Q.** And the GI50 ([8]; Homo sapiens, read-out: Full panel MG-MID (GI50), five-dose assay, mean graph midpoint over full panel)?
**A.** Its GI50 is 4.2 µM.

**Q.** And the CC50 ([8]; Homo sapiens, read-out: LC50)?
**A.** The CC50 was > 100 µM.

**Q.** And the “Mean GI%” value ([8]; single dose 10 μM, mean over the NCI 60 panel)?
**A.** The value was 83.58%.

**Q.** And the GI50 ([9]; Homo sapiens, HCT-15)?
**A.** Its GI50 is 3.18 µM.

**Q.** And the GI% [9, 23]?
**A.** Its GI% is 83.02%.

**Q.** And the GI50 ([10]; Homo sapiens, HT-29)?
**A.** The GI50 was 6.46 µM.

**Q.** What about the GI% [10, 23] of the same molecule?
**A.** Its GI% is 64.97%.

**Q.** What about the GI50 ([11]; Homo sapiens, KM12) of the same molecule?
**A.** Its GI50 is 5.55 µM.

**Q.** What about the GI% [11, 23] of the same molecule?
**A.** Its GI% is 91.86%.

**Q.** And the GI50 ([12]; Homo sapiens, SW-620)?
**A.** The GI50 was 5.95 µM.

**Q.** And the GI% [12, 23]?
**A.** The GI% was 76.92%.

**Q.** What about the GI50 ([13]; Homo sapiens, SF-539) of the same molecule?
**A.** Its GI50 is 3.97 µM.

**Q.** What about the GI% ([13]; single dose 10 μM, CNS cancer) of the same molecule?
**A.** Its GI% is 85.47%.

**Q.** What about the GI50 ([14]; Homo sapiens, SNB-75) of the same molecule?
**A.** Its GI50 is 2.72 µM.

**Q.** And the GI% ([14]; single dose 10 μM, CNS cancer)?
**A.** The GI% was 65.51%.

**Q.** What about the GI50 ([15]; Homo sapiens, LOX IMVI) of the same molecule?
**A.** The GI50 was 3.71 µM.

**Q.** And the GI% ([15]; single dose 10 μM, melanoma)?
**A.** The GI% was 75.62%.

**Q.** What about the GI50 ([16]; Homo sapiens, Malme-3M) of the same molecule?
**A.** Its GI50 is 6.19 µM.

**Q.** What about the GI% ([16]; single dose 10 μM, melanoma) of the same molecule?
**A.** Its GI% is 81.85%.

**Q.** And the GI50 ([17]; Homo sapiens, SK-MEL-2)?
**A.** The GI50 was 2.53 µM.

**Q.** And the GI% ([17]; single dose 10 μM, melanoma)?
**A.** The GI% was 99.44%.

**Q.** What about the GI50 ([18]; Homo sapiens, OVCAR-3) of the same molecule?
**A.** Its GI50 is 4.91 µM.

**Q.** And the GI% [18, 24]?
**A.** Its GI% is 81.63%.

**Q.** And the GI50 ([19]; Homo sapiens, OVCAR-8)?
**A.** The GI50 was 5.88 µM.

**Q.** What about the GI% [19, 24] of the same molecule?
**A.** Its GI% is 86.94%.

**Q.** And the GI50 ([20]; Homo sapiens, A498)?
**A.** Its GI50 is 12.7 µM.

**Q.** What about the GI% ([20]; single dose 10 μM, renal carcinoma) of the same molecule?
**A.** The GI% was 54.33%.

— publication PMC12486440, “Design, synthesis, and in silico studies of new benzofuran–pyrazole hybrids as multi-kinase inhibitors with potential antiproliferative activity” (RSC Advances, 2025)
